Several values for one entry are separate records, joined by “and”; a condition that tells them apart may be missing. Identical values can stand only once. Entries after “also recorded” stand apart in the source; their conditions may differ. Like-named read-outs stand apart in the source and are kept apart here.
Experiments:
[1] = In vivo kinetic study, intravenous 50 mg/kg bw, blood concentrations; settings: rat, 50 mg/kg bw parent PAH
Protocol: Six male Sprague–Dawley rats at the age of 8–9 weeks weighing 286-305g/rat were obtained from Charles River Inc (Beijing, China). The rats were maintained in plastic cages in two groups of three in a temperature-controlled (ranging from 20 °C to 25 °C) and humidity-controlled (ranging from 40–70%) environment on a 12-h light–dark cycle. The animal bedding was corncob and used after autoclaving. The bedding and the cages were changed twice a week. The number of animals was restricted to 3 per dose group and control blood samples were collected before dosing. Feeding and living conditions followed the Chinese Laboratory Animal-Requirement of environment and housing facilities (GB14925-2010). The present rat study was approved by Institutional Animal Care and Use Committee (IACUC-BF202305006).
All animals were fasted 8 h before intravenous injection and resumed feed supply 4 h after dosing.
After administration, blood samples (0.1–0.2 ml blood volume) were taken from the medial canthus venous plexus of the animal and anticoagulated with sodium heparin. Prior to orbital venipuncture and blood collection, the animals were anesthetized by CO2 inhalation (70% CO2 + 30% O2). Blood was sampled at 1 min, 0.5, 1, 2, 4, 8, 12, 24, 32, 48, and 72 h post-dosing. After collection, blood samples were frozen and were stored at −20 °C until analysis. All animals were euthanized with 100% CO2 after the experiment.
Aliquots of 100 µL of blood samples were transferred into centrifuge tubes and 700 µL sodium acetate buffer (0.1M, pH 5.0) and 6 µL β-glucuronidase-arylsulfatase were added. The samples were incubated for 1 h at 37 °C and subsequently extracted twice with 800 µL ethyl acetate saturated with water. The samples were shaken for 30 min and centrifuged 5 min at 2000 g (4 °C). The upper organic phase was transferred to a centrifuge tube and evaporated under a gentle stream of nitrogen at 40 ℃ in a water bath. The residues were re-dissolved with 200 µL ascorbic acid:methanol (1:100). […]

[2] = system: ES-D3 cells (differentiation into contracting cardiomyocytes); experiment: ES-D3 cell differentiation assay of the mouse embryonic stem cell test (mEST); type: cell-based; settings: for IC50: Mus musculus, Cardiomyocyte, 240 h, read-out: IC50 for inhibition of differentiation of ES-D3 cells into beating cardiomyocytes; for Outcome in the differentiation assay of the mEST: parent PAH tested without bioactivation
Protocol: The developmental toxicity of the test compounds was assessed by the inhibitory effect on the differentiation of cells of the ES-D3 cell line into contracting cardiomyocytes. The assay was performed essentially as previously described (Kamelia et al. [2020]). The cells were cultured on the lid of a 96-well plate in 45 hanging drops (volume 20 µL/drop) at a concentration of 37,500 cells/ml. The 96 wells were filled with 250 µL PBS to maintain the humidity. Sterile Eppendorf lids were placed at the corners of the 96-well plate to prevent the hanging drops from contacting the 96-well plate. The plates were sealed with micropore tape and incubated at 37 °C with 5% CO2 in a humidified atmosphere for 72 h. After 72 h, 5 ml exposure medium was prepared for each concentration of each test compound with 0.25% DMSO in a 60 × 15 mm petri dish. The formed embryonic bodies (EBs) in the hanging drops on the lid of the 96-well plate were washed off with exposure medium and collected in the petri dish. The Petri dish was subsequently incubated at 37 °C with 5% CO2 in a humidified atmosphere for 48 h. After 48 h, the EBs were transferred to a 24-well plate filled with 1 ml exposure medium per well. Each well contained 1 EB. The 24-well plates were incubated at 37 °C with 5% CO2 in a humidified atmosphere for 120 h. The number of EBs with contracting cardiomyocytes and the undifferentiated EBs were counted under a microscope. In the solvent (DMSO) control, the presence of more than 21 EBs with contracting cardiomyocytes out of 24 EBs indicates a valid assay. In each experiment, 0.5 µM (0.065 µg/ml) 5-FU was used as a positive control. The result of the differentiation assay is expressed as the fraction of differentiated EBs of the total number of EBs.
(§1) The concentration–response data for the test compounds in the mEST were presented in three curves including curves for 1-day cytotoxicity, 5-day cytotoxicity, and 10-day differentiation assays. The obtained curves were fitted using the inhibition equation log (inhibitor) vs response (three parameters) option using GraphPad Prism software 5.0 (California, USA).

ES-D3 cells = experiment: ES-D3 cell cytotoxicity (WST-1 viability) assay of the mEST; type: cell-based, mouse
Protocol: The viability of the ES-D3 cells following 1-day and 5-day exposure to the test compounds was measured with the WST-1 assay. To this end, 100 µL cell suspension was seeded in the inner 60 wells of 96-well plates at a concentration of 2 × 10^5 cells/ml for 1-day exposure and 10^4 cells/ml for 5-day exposure and incubated at 37 °C with 5% CO2 for 24 h. After 24 h, 100 µL exposure medium with 0.25% DMSO and the required concentration of the test compounds, solvent control, and positive control were added to the cells in triplicate. The plates were incubated at 37 °C with 5% CO2 for 1 day or 5 days until measurement. After the exposure period, 20 µL of the cell proliferation reagent WST-1 were added to each well that contained cells and the cells were incubated for 3 h at 37 °C with 5% CO2. The absorbance of each plate was measured at 440 nm and 620 nm with a SpectraMax iD3 (San Jose, USA).
as §1

[3] = system: P450 enzymes in rat liver microsomes; experiment: P450-mediated oxidative metabolism of 8-MBaP/BaP in rat liver microsomes; type: in vitro ADME
Protocol: 3-OH-8-MBaP was subsequently modeled to be conjugated by glucuronidation and sulfation in the liver. The kinetic constants for these conjugation reactions were determined in incubation experiments described in Sect. […] The scaling factors from rat liver microsomes and rat liver S9 to the whole liver were 45 mg microsomal protein/g liver and 125 mg S9 protein/g liver, respectively (Houston and Galetin [2008]).

[4] = system: P450 enzymes in rat liver microsomes; parameters: method as in Wang et al. 2022; settings: cited from earlier work
rats [5] = system: rats; parameters: method as in Archibong et al. 2002; settings: rat; derived from reported in vivo dose–response data; ref Archibong et al. 2002; cited from earlier work
[6] = parameters: method as in Sun et al. 2002; settings: 8-MBaP assumed to be the same as BaP; ref Sun et al. 2002; cited from earlier work
rats [7] = system: rats; parameters: method as in Wang et al. 2021; settings: rat, oral exposure, previously predicted dose–response curve; ref Wang et al. 2021; cited from earlier work
rats [8] = experiment: PBK modeling-facilitated reverse dosimetry (QIVIVE) of mEST data to predict developmental toxicity; settings: rat
Protocol: The relationship between the in vivo 3-OH-8-MBaP concentration in maternal blood (C in vivo) and the in vitro 3-OH-8-MBaP concentration in the mEST (Cin vitro) was described by the following Eq. (2): 2 Cinvivo∗fub,invivo=Cinvitro∗fub,invitro
The fraction unbound in blood (fub, in vivo) of 3-OH-8-MBaP was calculated as 0.004 (Table 2) based on the methodology mentioned in Sect. “PBK model for 8-MBaP in rats”. The fraction unbound in the mEST (fub, in vitro) was assumed to be half of the fub, in vivo based on the ratio between the protein content in rat blood plasma (7.5%) and the mEST assay medium (15%). The unbound concentration in vitro (Cub, in vitro) inducing the developmental toxicity response in mEST was converted using Eq. (2) to an unbound concentration in blood (Cub,in vivo) that was further converted by the PBK model to a predicted oral dose.

[9] = scaled to whole liver, liver weight 9.1 g
[10] = scaled with 45 mg microsomal protein/g liver

Oc1ccc2ccc3c4ccccc4cc4ccc1c2c43 [3-OHBaP, 3-hydroxy-benzo[a]pyrene, reference compound]
Observed in vivo Cmax relative to the model prediction (lower) [1]: 2.6 fold
IC50 [2]: 1510 nM
Cytotoxicity accompanying the inhibition of differentiation (ES-D3 cells; 1-day and 5-day cytotoxicity, ES-D3 cells): non-cytotoxic concentrations

Cc1ccc2c(c1)cc1ccc3cccc4ccc2c1c34 [8-MBaP, 8-methyl-benzo[a]pyrene]
IC50 [2]: 830 nM
Outcome in the differentiation assay of the mEST [2]: negative
IC50 (ES-D3 cells; Mus musculus, 120 h, 5-day exposure, WST-1, read-out: IC50 for reduction of cell viability on Day 5): 1740 nM
Scaled Vmax, 8-MBaP to 3-OH-8-MBaP [3, 9]: 2 µmol/h/liver
Scaled Vmax, 8-MBaP to other metabolites [3, 9]: 11 µmol/h/liver
Scaled Vmax, 8-MBaP to 3-OH-8-MBaP [3, 10]: 0.19 µmol/h/g liver
Scaled Vmax, 8-MBaP to other metabolites [3, 10]: 1.18 µmol/h/g liver
Km ([4]; read-out: Km, 8-MBaP to 3-OH-8-MBaP, ref Wang et al. 2022, listed as 8MBaP): 12 µM
Km ([4]; read-out: Km, 8-MBaP to 3-OH-8-MBaP, ref Wang et al. 2022): 11.6 µM
Km ([4]; read-out: Km, 8-MBaP to other metabolites, sum of other metabolites, ref Wang et al. 2022, listed as 8MBaP): 8 µM
Km ([4]; read-out: Km, 8-MBaP to other metabolites, sum of other metabolites, ref Wang et al. 2022): 8.07 µM
Vmax, 8-MBaP to 3-OH-8-MBaP ([4]; ref Wang et al. 2022): 0.07 nmol/min/mg microsomal protein and 0.07^a nmol/min/mg microsomal protein
Vmax, 8-MBaP to other metabolites ([4]; sum of other metabolites, ref Wang et al. 2022): 0.43 nmol/min/mg microsomal protein and 0.43^a nmol/min/mg microsomal protein

c1ccc2c(c1)cc1ccc3cccc4ccc2c1c34 [BaP, benzo[a]pyrene]
ED50 for developmental toxicity, in vivo toxicity study (rats [5]): 10.8 mg/kg bw
Permeability coefficient (Papp), apparent intestinal permeability in vivo [6]: 0.02 dm/hr
Outcome in the differentiation assay of the mEST [2]: inactive; also recorded: negative
ED50 for developmental toxicity, model prediction (rats [7]): 15.1 mg/kg bw
Predicted ED50 of BaP (present study) relative to previously predicted ED50 of BaP (lower) (rats [8]; oral, versus Wang et al. 2021): 0.9 fold
Predicted ED50 of BaP (present study) relative to ED50 from the reported in vivo study (higher) (rats [8]; versus Archibong et al. 2002): 1.3 fold

From paper PMC12454603 (Archives of Toxicology, 2025)
